Results published in patent publication US7332489B2, “Methods and compositions of novel triazine compounds” (Reddy US Therapeutics, Inc., priority 2003, dated 2008).
Where a name gives a salt, the structure may show the parent alone. Read-outs that look alike come from different tables or passages of the source.

System: TNF-α induced IL-6
Assay: TNF-α-induced IL-6 production determined by IL-6 ELISA
Assay type: cell-based
Settings: for inhibition at 10 µM / activity at 10 µM: Homo sapiens
Description: Human aortic endothelial cells (HAEC, Clonetics) were cultured according to manufacturer in growth medium (Clonetics): basal medium containing human epidermal growth factor, hydrocortisone, vascular endothelial growth factor, heparin binding growth factor-B, long R3-insulin-like growth factor-1, ascorbic acid, gentamicin/amphotericin and 5% FBS. These cell were allowed to reach at least 90% confluency before subjected to experimental treatments. […] Tumor necrosis factor α was from R&D Systems.
All treatments, compound-added and controls were carried out in serum free media containing 0.2% albumin. Media from all conditions were collected and used for IL-6 ELISA.
IL-6 ELISA was carried out using human IL-6 DuoSet ELISA development kit as described by manufacturer (R&D Systems). Mouse anti-human Il-6 was used as the capture antibody (2 ug/ml) and biotinylated goat anti-human IL-6 (200 ng/ml) was used as the detection antibody. Culture media were incubated with capture antibody (in 96 well) for 2 h at room temperature. Wells were washed three times with wash buffer (0.05% tween-20 in phosphate buffered saline (PBS) pH 7.4) followed by incubation with detection antibody for 2 h at room temperature. Following three washes wells were incubated with Streptavidin-HRP for 20 min. Color development was read at 450 nm in a Microplate reader.

[1] = 24 h, Table 7, first part, read-out: Inhibition of TNF-induced IL6 production
[2] = 24 h, Table 5, second part, column 1, class = % of control IL6 production, read-out: Inhibition of TNF-induced IL6, production
[3] = 24 h, Table 5, first part, class = % of control IL6 production, read-out: Inhibition of TNF-induced IL6 production
[4] = 10 uM, read-out: Inflammation Data, inhibition at 10 uM

Structure (SMILES) | activity at 10 µM [2] | activity at 10 µM [3] | also measured
COc1ccc(Nc2nc(NC3CCCCCC3)nc(N3CCOCC3)n2)cc1 [Compound 177, N-Cycloheptyl-N′-(4-methoxy-phenyl)-6-mor-pholin-4-yl-[1,3,5]triazine-2,4-diamine] | – | – | inhibition at 10 µM [1]: 85 to 100%; inhibition at 10 µM (24 h, Table 7, second part, column 1, read-out: Inhibition of TNF-induced IL6 production): 65 to 85%
c1ccc(Nc2nc(NC3CCCCCC3)nc(N3CCOCC3)n2)cc1 [Compound 176, N-Cycloheptyl-6-morpholin-4-yl-N′-phenyl-[1,3,5]tri-azine-2,4-diamine] | – | – | inhibition at 10 µM [1]: 85 to 100%
CCN1CCCC1CNc1nc(NC2CCCCCC2)nc(N(C)c2ccc(Cl)cc2)n1 (stereo not shown) [Compound 40, N^2-(4-chlorophenyl)-N^4-cycloheptyl-N^6-[(1-ethyl-2-pyrrolidinyl)methyl]-N^2-methyl-1,3,5-triazine-2,4,6-triamine] | 0 to 25% | – | –
CCN1CCCC1CNc1nc(NC2CCCCCC2)nc(N(CC#N)c2ccccc2)n1 (stereo not shown) [Compound 44, [(4-(cycloheptylamino)-6-{[(1-ethyl-2-pyrrolidinyl)methyl]amino}-1,3,5-triazin-2-yl)(phenyl)amino]acetonitrile] | 0 to 25% | – | –
CCN1CCCC1CNc1nc(Nc2ccc(OC)c(F)c2)nc(NC(C)(C)C)n1 (stereo not shown) [Compound 52, N^2-(tert-butyl)-N^4-[(1-ethyl-2-pyrrolidinyl)methyl]-N^6-(3-fluoro-4-methoxyphenyl)-1,3,5-triazine-2,4,6-triamine] | 25 to 50% | 0 to 25% | –
COc1ccc(Nc2nc(NC3CCCCCC3)nc(NC(C)(C)C)n2)cc1F [Compound 77, N^2-(tert-butyl)-N^4-cycloheptyl-N^6-(3-fluoro-4-methoxyphenyl)-1,3,5-triazine-2,4,6-triamine] | – | 0 to 25% | –
CCN1CCCC1CNc1nc(NCCN2CCCCC2)nc(Nc2ccc(OC)c(F)c2)n1 (stereo not shown) [Compound 71, N^2-[(1-ethyl-2-pyrrolidinyl)methyl]-N^4-(3-fluoro-4-methoxyphenyl)-N^6-[2-(1-piperidinyl)ethyl]-1,3,5-triazine-2,4,6-triamine] | 25 to 50% | 0 to 25% | –
CCOc1ccc(Nc2nc(NCC3CCCN3CC)nc(NC3CCCCCC3)n2)cc1 (stereo not shown) [Compound 32, N^2-cycloheptyl-N^4-(4-ethoxyphenyl)-N^6-[(1-ethyl-2-pyrrolidinyl)methyl]-1,3,5-triazine-2,4,6-triamine] | 0 to 25% | – | –
COc1ccc(Nc2nc(NC3CCCCCC3)nc(N3CCN(C)CC3)n2)cc1F [Compound 87, N^2-cycloheptyl-N^4-(3-fluoro-4-methoxyphenyl)-6-(4-methyl-1-piperazinyl)-1,3,5-triazine-2,4-diamine] | 0 to 25% | – | –
COc1ccc(Nc2nc(NC3CCCCCC3)nc(N(C)C3CCN(C)CC3)n2)cc1F [Compound 171, N-Cycloheptyl-N′-(3-fluoro-4-methoxy-phenyl)-N″-methyl-N″-(1-methyl-piperidin-4-yl)-[1,3,5]tri-azine-2,4,6-triamine] | – | – | inhibition at 10 µM (24 h, read-out: Inhibition of TNF-induced IL6 production, Table 7, first part): 85 to 100%; inhibition at 10 µM (24 h, read-out: Inhibition of TNF-induced IL6 production, Table 7, second part, column 1): 65 to 85%; % IL6 production compare to TNF stimulation of IL6 (100%), Compds tested @ 10 μM HAEC, IL6 (Table 7, HAEC, 10 μM compound, TNF stimulation = 100%): 21%
COc1ccc(Nc2nc(NC3CCCCCC3)nc(OC(C)C)n2)cc1Cl [drawing 1598] | – | – | inhibition at 10 µM [4]: < 25%
COc1ccc(Nc2nc(NC3CCCCCC3)nc(N(C)C3CCN(C)CC3)n2)cc1F [Compound 168, N^2-cycloheptyl-N^4-(3-fluoro-4-methoxy-phenyl)-N^6-methyl-N^6-(1-methyl-piperidin-4-yl)-1,3,5-triazine-2,4,6-triamine citrate salt] | – | – | % IL6 production compare to TNF stimulation of IL6 (100%), HAEC, IL6, @ 5 uM (HAEC, TNF stimulated, compound 5 uM (bracketed value), citrate salt): 40%; % IL6 production compare to TNF stimulation of IL6 (100%), Compds tested @ 10 uM HAEC, IL6 (HAEC, TNF stimulated, compound 10 uM): total cell death
COc1ccc(Nc2nc(NC3CCCCCC3)nc(N(C)Cc3ccccc3)n2)cc1 [Compound 178, N-Benzyl-N′-cycloheptyl-N″-(4-methoxy-phenyl)-N-methyl-[1,3,5]triazine-2,4,6-tri-amine] | – | – | inhibition at 10 µM [1]: 65 to 85%
CCN1CCCC1CNc1nc(NC2CCCCCC2)nc(N(C)c2cccc(Cl)c2)n1 (stereo not shown) [Compound 45, N^2-(3-chlorophenyl)-N^4-cycloheptyl-N^6-[(1-ethyl-2-pyrrolidinyl)methyl]-N^2-methyl-1,3,5-triazine-2,4,6-triamine] | 0 to 25% | – | –
COC[C@@H]1CCCN1c1nc(Nc2ccc(OC)c(F)c2)nc(NC2CCCCCC2)n1 [Compound 86, N^2-cycloheptyl-N^4-(3-fluoro-4-methoxyphenyl)-6-[(2S)-2-(methoxymethyl)-1-pyrrolidinyl]-1,3,5-triazine-2,4-diamine] | – | 0 to 25% | –
CCN1CCCC1CNc1nc(Nc2ccccc2C)nc(NC2CCCCCC2)n1 (stereo not shown) [Compound 35, N^2-cycloheptyl-N^4-[(1-ethyl-2-pyrrolidinyl)methyl]-N^6-(2-methylphenyl)-1,3,5-triazine-2,4,6-triamine] | 0 to 25% | 25 to 50% | –
CCN1CCCC1CNc1nc(Nc2ccc(N3CCN(C)CC3)cc2)nc(NC2CCCCCC2)n1 (stereo not shown) [Compound 28, N^2-cycloheptyl-N^4-[(1-ethyl-2-pyrrolidinyl)methyl]-N^6-[4-(4-methyl-1-piperazinyl)phenyl]-1,3,5-triazine-2,4,6-triamine] | – | 0 to 25% | –
CCN1CCCC1CNc1nc(Nc2ccc(OC)c(Cl)c2)nc(NC2CCCCCC2)n1 (stereo not shown) [Compound 48, N^2-(3-chloro-4-methoxyphenyl)-N^4-cycloheptyl-N^6-[(1-ethyl-2-pyrrolidinyl)methyl]-1,3,5-triazine-2,4,6-triamine] | – | 25 to 50% | –
COc1ccc(Nc2nc(NC3CCCCCC3)nc(OCc3cccc(C)n3)n2)cc1Cl | – | – | inhibition at 10 µM [4]: 60%
CCN1CCCC1CNc1nc(Nc2ccc(OC)c(F)c2)nc(N2CCCCCC2)n1 (stereo not shown) [Compound 58, N^2-[(1-ethyl-2-pyrrolidinyl)methyl]-N^4-(3-fluoro-4-methoxyphenyl)-N^6-hexahydro-1H-azepin-1-yl-1,3,5-triazine-2,4-diamine] | 25 to 50% | 0 to 25% | –
CCN1CCCC1CNc1nc(Nc2ccc(N(C)C)cc2)nc(NC2CCCCCC2)n1 (stereo not shown) [Compound 25, N^2-cycloheptyl-N^4-[4-(dimethylamino)phenyl]-N^6-[(1-ethyl-2-pyrrolidinyl)methyl]-1,3,5-triazine-2,4,6-triamine] | 0 to 25% | – | –
COc1ccc(Nc2nc(NCCCCCO)nc(N(C)C3CCN(C)CC3)n2)cc1Cl [Compound 108, 5-{4-(3-Chloro-4-methoxy-phenylamino)-6-[methyl-(1-methyl-piperidin-4-yl)-amino]-[1,3,5]triazin-2-ylamino}-pentan-1-ol] | – | – | activity at 10 µM (24 h, read-out: % IL6 production compare to TNF stimulation of IL6 (100%), Compds tested @ 10 uM HAEC, IL6): 25%; activity at 10 µM (24 h, read-out: Inhibition of TNF-induced IL6 production): 25 to 50%
CCN1CCCC1CNc1nc(Nc2ccc(OC)c(F)c2)nc(N2CCN(C(C)=O)CC2)n1 (stereo not shown) [Compound 63, 6-(4-acetyl-1-piperazinyl)-N^2-[(1-ethyl-2-pyrrolidinyl)methyl]-N^4-(3-fluoro-4-methoxyphenyl)-1,3,5-triazine-2,4-diamine] | – | 25 to 50% | –
CCN1CCCC1CNc1nc(NCCCn2ccnc2)nc(Nc2ccc(OC)c(F)c2)n1 (stereo not shown) [Compound 75, N^2-[(1-ethyl-2-pyrrolidinyl)methyl]-N^4-(3-fluoro-4-methoxyphenyl)-N^6-[3-(1H-imidazol-1-yl)propyl]-1,3,5-triazine-2,4,6-triamine] | 25 to 50% | 25 to 50% | –
CCN1CCCC1CNc1nc(Nc2ccc(OC)c(F)c2)nc(NC2CCCC2)n1 (stereo not shown) [Compound 56, N^2-cyclopentyl-N^4-[(1-ethyl-2-pyrrolidinyl)methyl]-N^6-(3-fluoro-4-methoxyphenyl)-1,3,5-triazine-2,4,6-triamine] | – | 0 to 25% | –
CCN1CCCC1CNc1nc(Nc2ccc3c(c2)OCCO3)nc(NC2CCCCCC2)n1 (stereo not shown) [Compound 24, N^2-cycloheptyl-N^4-(2,3-dihydro-1,4-benzodioxin-6-yl)-N^6-[(1-ethyl-2-pyrrolidinyl)methyl]-1,3,5-triazine-2,4,6-triamine] | 0 to 25% | – | –
COc1ccc(Nc2nc(NC3CCCCCC3)nc(N3CCN(C(C)=O)CC3)n2)cc1F [Compound 88, 6-(4-acetyl-1-piperazinyl)-N^2-cycloheptyl-N^4-(3-fluoro-4-methoxyphenyl)-1,3,5-triazine-2,4-diamine] | – | 0 to 25% | –
CCN1CCCC1CNc1nc(Nc2ccc(OC)c(F)c2)nc(N2CCN(CC(=O)N3CCCC3)CC2)n1 (stereo not shown) [Compound 69, N^2-[(1-ethyl-2-pyrrolidinyl)methyl]-N^4-(3-fluoro-4-methoxyphenyl)-N^6-{4-[2-oxo-2-(1-pyrrolidinyl)ethyl]-1-piperazinyl}-1,3,5-triazine-2,4-diamine] | 0 to 25% | 0 to 25% | –
COc1ccc(Nc2nc(N3CCOCC3)nc(N3CCN(Cc4ccccc4)CC3)n2)cc1 [Compound 173, [4-(4-Benzyl-piperazin-1-yl)-6-morpholin-4-yl-[1,3,5]tri-azin-2-yl]-(4-methoxy-phenyl)-amine] | – | – | inhibition at 10 µM [1]: 65 to 85%
